Reference: patent EP0449195B1, “Aminobenzene compounds, their production and use” (Takeda Chemical Industries, Ltd., priority 1990, dated 1991)

Tested on: N18-RE-105 cells
Test: Protective activity to glutamic acid-induced necrocytosis in N18-RE-105 cells (cell lethal ratio from LDH activity)
Assay type: cell-based
Details: glutamic acid (10 mM), cultivation 24 hours after addition, LDH activity in cells and medium, read-out: IC₅₀ (minimum concentrations for depressing cell lethal ratio to not more than 50%), Effect on glutamic acid cytotoxicity (cell lethal ratio)
Procedure: When a high concentration of glutamic acid (1 to 10 mM) is added to N18-RE-105 cells, neocrocytosis caused by oxidative stress due to inhibition of incorporation of cystine into cells is observed [Neuron 2, 1547 (1989); J. Pharmacol. Exp. Ther. 250, 1132 (1989)].
Activity of various compounds against this glutamic acid-induced necrocytosis was studied. About 10,000 cells were inoculated into a culture dish of 35 mm in diameter containing DMEM medium (1 ml). After cultivation for 24 hours, glutamic acid and a compound to be tested were added. After the medium was changed to DMEM mediums containing the compound in various concentrations and then glutamic acid (10 mM) was added. After addition of glutamic acid, cultivation was further continued for 24 hours. Then, surviving cells were collected and […] activity contained in the cells and medium was determined. A cell lethal ratio (%) was calculated according to the following formula: Cell lethal ratio (%) =(LDH activity in medium)/(LDH activity in cells + LDH activity in medium)x 100 [formula] Regarding the typical compounds of the present invention, minimum concentrations for depressing cell lethal ratio to not more than 50% (IC₅₀) is shown in Table 9.

Substance | IC50
4-(4-octylaminophenyloxy)piperidine [Example 45] | 5.5 nM
4-[4-(1-phenyldecanylamino)phenyloxy]piperidine [Example 52] | 10 nM
